According to PubChem BioAssay AID2060912 (Molecular Pharmacology Branch, DTP, NCI, 2025):

Test system: HUVEC/MSC spheroids viability
Assay: Human HUVEC/MSC cell line growth inhibition [KRAS2];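 as to viability, T/C: percent of DMSO vehicle control luminescence so 100% = untreated viability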
Conditions: for viability, T/C: stronger effect = lower value
Summary of the method: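 HUVEC + hMSC stromal spheroids only, no malignant cells; 37 °C, 5% CO2. Drugs singly and in pairs, half-log series down from clinical Cmax (max 10 microM if Cmax undetermined).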

COc1cc2nc(C)nc(NC(C)c3cc(N)cc(C(F)(F)F)c3)c2cc1OC1CCOC1 (stereo unspecified)
viability, T/C (compound 0.0316 µM): 99.5% [middle of 9 runs] | viability, T/C (compound 0.316 µM): 97.3% [middle of 9 runs] | viability, T/C (compound 10 µM): 66.7% [middle of 9 runs] | IC50 (compound alone, run of 05/05/2024): > 10000 nM

Cn1nccc1Nc1nccc(-c2cc3c(s2)C(C)(C)N(CCN2CCOCC2)C3=O)n1 + CC1OCC2(CCN(c3cnc(Sc4ccnc(N)c4Cl)c(N)n3)CC2)C1N
IC50 (curve of first compound, second compound 0.0316 µM): 2080 nM | IC50 (curve of first compound, second compound 0.1 µM): 2730 nM | IC50 (curve of first compound, second compound 0.316 µM): 2530 nM | IC50 (curve of first compound, second compound 1 µM): 1740 nM | IC50 (curve of first compound, second compound 3.16 µM): 1350 nM | IC50 (curve of first compound, second compound 10 µM): 430 nM | viability, T/C (second compound 0.0316 µM, first compound 0.0316 µM): 105% | viability, T/C (second compound 0.0316 µM, first compound 0.1 µM): 127% | viability, T/C (second compound 0.0316 µM, first compound 0.316 µM): 108% | viability, T/C (second compound 0.0316 µM, first compound 1 µM): 78% | viability, T/C (second compound 0.0316 µM, first compound 3.16 µM): 34.5% | viability, T/C (second compound 0.0316 µM, first compound 10 µM): 7.19% | viability, T/C (second compound 0.1 µM, first compound 0.0316 µM): 117% | viability, T/C (second compound 0.1 µM, first compound 0.1 µM): 127% | viability, T/C (second compound 0.1 µM, first compound 0.316 µM): 124% | viability, T/C (second compound 0.1 µM, first compound 1 µM): 96.3% | viability, T/C (second compound 0.1 µM, first compound 3.16 µM): 43.8% | viability, T/C (second compound 0.1 µM, first compound 10 µM): 6.82% | viability, T/C (second compound 0.316 µM, first compound 0.0316 µM): 112% | viability, T/C (second compound 0.316 µM, first compound 0.1 µM): 120% | viability, T/C (second compound 0.316 µM, first compound 0.316 µM): 105% | viability, T/C (second compound 0.316 µM, first compound 1 µM): 78.8% | viability, T/C (second compound 0.316 µM, first compound 3.16 µM): 44.2% | viability, T/C (second compound 0.316 µM, first compound 10 µM): 5.45% | viability, T/C (second compound 1 µM, first compound 0.0316 µM): 95.9% | viability, T/C (second compound 1 µM, first compound 0.1 µM): 97.6% | viability, T/C (second compound 1 µM, first compound 0.316 µM): 107% | viability, T/C (second compound 1 µM, first compound 1 µM): 60.7% | viability, T/C (second compound 1 µM, first compound 3.16 µM): 34.6% | viability, T/C (second compound 1 µM, first compound 10 µM): 4.73% | viability, T/C (second compound 3.16 µM, first compound 0.0316 µM): 79.7% | viability, T/C (second compound 3.16 µM, first compound 0.1 µM): 90.2% | viability, T/C (second compound 3.16 µM, first compound 0.316 µM): 80.3% | viability, T/C (second compound 3.16 µM, first compound 1 µM): 57.7% | viability, T/C (second compound 3.16 µM, first compound 3.16 µM): 25.5% | viability, T/C (second compound 3.16 µM, first compound 10 µM): 8.64% | viability, T/C (second compound 10 µM, first compound 0.0316 µM): 73% | viability, T/C (second compound 10 µM, first compound 0.1 µM): 67.4% | viability, T/C (second compound 10 µM, first compound 0.316 µM): 56.1% | viability, T/C (second compound 10 µM, first compound 1 µM): 34.2% | viability, T/C (second compound 10 µM, first compound 3.16 µM): 21.5% | viability, T/C (second compound 10 µM, first compound 10 µM): 4.23%
